Measured values as given in patent publication US4959361A, “Triazolo(4,3-A)(1,4)benzodiazepines and thieno (3,2-F)(1,2,4)triazolo(4,3-A)(1,4)diazepine compounds which have useful activity as platelet activating factor (PAF) antagonists” (Hoffmann-La Roche Inc., priority 1988, dated 1990).
Like-named read-outs stand apart in the source and are kept apart here.

Experiments:
[1] = biological target: T1, PAF-binding, dog platelets (Canis lupus familiaris, UniProt A0A8I3NSH0); experiment: PAF binding assay (radiolabelled H-PAF, washed dog platelets); settings: 10 minutes at room temperature, read-out: PAF-binding IC-50
T1 construct: dog platelets; from tissue; host or cells: washed platelets from citrated dog blood
T1 sequence (A0A8I3NSH0 1-343): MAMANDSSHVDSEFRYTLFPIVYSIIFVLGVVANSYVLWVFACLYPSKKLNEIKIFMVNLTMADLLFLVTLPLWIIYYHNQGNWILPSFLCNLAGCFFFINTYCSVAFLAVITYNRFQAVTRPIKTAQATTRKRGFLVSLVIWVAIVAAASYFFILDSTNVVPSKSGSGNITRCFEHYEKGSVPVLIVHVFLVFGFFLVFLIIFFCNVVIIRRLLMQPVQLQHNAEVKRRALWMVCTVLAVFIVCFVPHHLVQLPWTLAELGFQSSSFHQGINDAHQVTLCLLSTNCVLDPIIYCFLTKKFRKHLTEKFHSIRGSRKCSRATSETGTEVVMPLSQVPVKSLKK
Procedure: The binding assay was done in […] polyethylene microcentrifuge tubes (Beckman) containing 50 μl of an oil mixture of 2 parts Siliconol AR200 (Serva): 1 part Silicone Fluid (Arthur H. Thoma). Buffer, standards, or analogs (150 μl total volume) were added to the tubes. Radiolabelled H-PAF (50 μl) was then added to the tubes. The reaction was started by the addition of 50 μl of dog platelets (2×10^7 platelets). The tubes were capped, inverted several times to mix, and incubated for 10 minutes at room temperature. The platelets were separated from the incubation mixture by centrifuging 1 minute in a Beckman Microfuge B centrifuge. The tip of the microfuge tube was cut off, and the platelets were washed out of the tip with 200 μl of 50% methanol (Burdick and Jackson). Aquasol (NEN, 10 ml) was added and the radioactivity in the samples was determined using an LS 8100 Beckman liquid scintillation counter linked to a Techtran tape recorder Data was processed through an in-house computer system. Alternatively, radioactivity was determined using a Searle Mark III liquid scintillation counter linked to a Iso-Data microprocessor.
(b) preparation of platelets
Blood was collected from anesthesized or unanesthesized dogs into 50 ml plastic centrifuge tubes containing 3.8% sodium citrate as the anticoagulant (1 volume of citrate/9 volumes of blood). The red cells were removed by centrifugation for 15 minutes at 600 rpm (100-125 g) at room temperature. An aliquot of the supernatant platelet rich plasma (PRP) was saved for cell counting and the remainder was acidified to pH 6.5 with 0.15M citric acid. The platelet pellet was obtained after a 10 minute centrifugation at 2000 rpm (1000 g) at room temperature. Washed platelets were prepared by resuspending the platelet pellet once with pBS containing 1 mM EDTA, centrifuging as noted, and then resuspending the platelets in 0.1% BSA pBS. An aliquot of the washed platelets was counted. Platelets used for binding assays were diluted to 2×10^7 platelets/assay tube (4×10^8 platelets/ml). platelet countinq was done using a Royco Cell-Crit 921.

[2] = tested on: PAF Induced Bronchoconstriction; experiment: PAF induced bronchoconstriction assay, oral testing; assay type: in vivo, guinea pig; settings: Cavia porcellus, 2 hr; for ED50: p.o., read-out: Bronchoconstriction ID-50 p.o. 2 hr; for inhibition in vivo at 3 mg/kg: Table II (*), 3 mg/kg p.o.
[3] = tested on: PAF Induced Bronchoconstriction; experiment: PAF induced bronchoconstriction assay, intravenous testing; assay type: in vivo, guinea pig; settings: for ED50: Cavia porcellus, iv, 1 min, i.v., 1 minute pretreatment, PAF 1 μg/kg i.v., read-out: Bronchoconstriction ID-50 i.v.; for % inhibition of bronchoconstriction: Table II (*), at 0. mg/kg i.v. (dose digit cut off)
Procedure: Male animals (Hartlet Strain, 400-500 g were anesthetized with urethane (2 g/kg, i.p.). Each animals' trachea was cannulated and the guinea pigs were respirated using a Harvard small animal rodent respirator (3.0 cc stroke volume, 40 breaths per min.). Tracheal pressure was recorded from a cannula inserted in the trachea and connected to a Statham pressure transducer.
The jugular vein was cannulated for administering compounds. Spontaneous breathing was arrested with succinylcholine (1.2 mg/kg, i.v.) administered 2 minutes prior to intravenous injection of platelet activating factor PAF).
For the intravenous testing, the guinea pig is given a 1-minute pretreatment with propranolol at a dose of 0.1 mg/kg intravenously. The test compound is administered with a 1 minute pretreatment prior to intravenous challenge with PAF. The animal is then challenged with a 1 μg/kg intravenous dose of PAF and the change in tracheal pressure is measured.
The change in tracheal pressure is determined by subtracting the steady state baseline achieved after administration of succinylcholine from the peak broncho. constriction seen after challenge with PAF. The mean is calculated for each test compound and compared to the mean of the control animals to give the percent inhibition of bronchoconstriction. The standard error is calculated as the standard error of the mean.

[4] = Table I, triazolothienodiazepines
[5] = Table II, triazolobenzodiazepines
[6] = Table II (**), at an oral dose of 0.3 mg/kg
[7] = po, Table I, at a dose of 0.3 mg/kg p.o.

Structure (SMILES): Cc1nnc2n1-c1sc(C#CCN3C(=O)C4(C)CCCc5cccc3c54)cc1C(c1ccccc1Cl)=NC2 (centres unmarked)
- IC50 [1, 4]: 12 nM
- ED50 ([2]; po, Table I): 0.03 mg/kg
- ED50 ([3]; Table I): 0.013 mg/kg

Structure (SMILES): Cc1nnc2n1-c1ccc(C#CCN3C(=O)c4ccccc4S3(=O)=O)cc1C(c1ccccc1F)=NC2
- IC50 [1, 5]: 150 nM

Structure (SMILES): Cc1nnc2n1-c1ccc(C#CCCc3ccccc3)cc1C(c1ccccc1F)=NC2
- IC50 [1, 5]: < 1 nM
- ED50 ([2]; po, Table II): > 0.3 mg/kg
- ED50 ([3]; Table II): 0.006 mg/kg

Structure (SMILES): Cc1nnc2n1-c1ccc(C#CCn3c(=O)oc4ccccc43)cc1C(c1ccccc1Cl)=NC2
- IC50 [1, 5]: 20 nM
- inhibition in vivo at 3 mg/kg ([2]; po): 91%

Structure (SMILES): Cc1nnc2n1-c1sc(C#CCn3c(=O)c4ccccc4c4ccccc43)cc1C(c1ccccc1Cl)=[N+]([O-])C2
- IC50 [1, 4]: 15 nM
- ED50 ([3]; Table I): 0.017 mg/kg

Structure (SMILES): Cc1nnc2n1-c1sc(C#CCn3c(=O)c4ccccc4c(=O)c4ccccc43)cc1C(c1ccccc1Cl)=NC2
- ED50 ([2]; po, Table I): 0.026 mg/kg
- ED50 ([3]; Table I): 0.008 mg/kg

Structure (SMILES): Cc1nnc2n1-c1sc(C#CCn3c4ccccc4c(=O)c4ccccc43)cc1C(c1ccccc1Cl)=NC2
- ED50 ([3]; Table I): 0.01 mg/kg

Structure (SMILES): Cc1nnc2n1-c1ccc(C#CCn3nc4ccccn4c3=O)cc1C(c1ccccc1F)=NC2
- IC50 [1, 5]: 350 nM
- inhibition in vivo at 3 mg/kg ([2]; po): 43%

Structure (SMILES): Cc1nnc2n1-c1ccc(C#CCn3c(C)nc4ccccc4c3=O)cc1C(c1ccccc1F)=NC2
- IC50 [1, 5]: 50 nM

Structure (SMILES): Cc1nnc2n1-c1ccc(C#CCN3C(=O)Cc4ccccc43)cc1C(c1ccccc1F)=NC2
- IC50 [1, 5]: < 10 nM
- inhibition in vivo at 0.3 mg/kg [2, 6]: 32%

Structure (SMILES): Cc1nnc2n1-c1sc(C#CCn3nc4ccccn4c3=O)cc1C(c1ccccc1Cl)=NC2
- IC50 [1, 4]: 11 nM
- inhibition in vivo at 0.3 mg/kg [2, 7]: 79%

Structure (SMILES): Cc1nnc2n1-c1ccc(C#CCN3C(=O)CN(C)C(=O)c4ccccc43)cc1C(c1ccccc1F)=NC2
- IC50 [1, 5]: 160 nM

Structure (SMILES): Cc1nnc2n1-c1ccc(C#CCn3ncc4ccccc43)cc1C(c1ccccc1F)=NC2
- IC50 [1, 5]: < 10 nM

Structure (SMILES): Cc1nnc2n1-c1sc(C#CCN3C(=O)COc4cc(F)ccc43)cc1C(c1ccccc1Cl)=NC2
- ED50 ([2]; po, Table I): 0.016 mg/kg
- ED50 ([3]; Table I): 0.005 mg/kg

Structure (SMILES): Cc1nnc2n1-c1sc(C#C[Si](C)(C)C)cc1C(c1ccccc1Cl)=NC2
- IC50 [1, 4]: 20 nM
- ED50 ([3]; Table I): 0.28 mg/kg

Structure (SMILES): Cc1c(C)c2c(c(C)c1O)CCC(C)(C#Cc1cc3c(s1)-n1c(C)nnc1CN=C3c1ccccc1Cl)O2 (centres unmarked)
- IC50 [1, 4]: 45 nM
- ED50 ([3]; Table I): 0.027 mg/kg

Structure (SMILES): Cc1nnc2n1-c1ccc(C#CCN3C(=O)CCc4ccccc43)cc1C(c1ccccc1F)=N[C@H]2C
- IC50 [1, 5]: 6 nM
- ED50 ([3]; Table II): 0.008 mg/kg

Structure (SMILES): Cc1nnc2n1-c1sc(C#Cc3ccccc3)cc1C(c1ccccc1Cl)=NC2
- IC50 [1, 4]: 100 nM
- ED50 ([3]; Table I): > 0.1 mg/kg

Structure (SMILES): Cc1nnc2n1-c1ccc(C#CCN3C(=O)C4CC=CCC4C3=O)cc1C(c1ccccc1F)=NC2 (centres unmarked)
- IC50 [1, 5]: 50 nM
- inhibition in vivo at 3 mg/kg ([2]; po): 99%

Structure (SMILES): Cc1nnc2n1-c1ccc(C#CCN3C(=O)c4cccc5cccc(c45)C3=O)cc1C(c1ccccc1Cl)=NC2
- inhibition in vivo at 3 mg/kg ([2]; po): 99%

Structure (SMILES): Cc1nnc2n1-c1sc(C#CCN3CCc4ccccc4C3=O)cc1C(c1ccccc1Cl)=NC2
- ED50 ([2]; po, Table I): 0.016 mg/kg
- ED50 ([3]; Table I): 0.008 mg/kg

Structure (SMILES): Cc1nnc2n1-c1ccc(C#CCn3ccc4ccccc43)cc1C(c1ccccc1F)=NC2
- ED50 ([2]; po, Table II): > 0.3 mg/kg

Structure (SMILES): Cc1nnc2n1-c1ccc(C#CCn3c(=O)c4c(ncn4C)n(C)c3=O)cc1C(c1ccccc1F)=NC2
- ED50 ([2]; po, Table II): > 0.3 mg/kg

Structure (SMILES): Cc1nnc2n1-c1ccc(C#CCN3C(=O)C(=O)c4ccccc43)cc1C(c1ccccc1Cl)=NC2
- IC50 [1, 5]: 350 nM
- % inhibition of bronchoconstriction [3]: 100%

Structure (SMILES): Cc1nnc2n1-c1sc(C#CCn3cnc4ccccc43)cc1C(c1ccccc1Cl)=NC2
- IC50 [1, 4]: 4.5 nM
- ED50 ([2]; po, Table I): 0.12 mg/kg

Structure (SMILES): Cc1nnc2n1-c1sc(C#CCn3c(=O)c4ccccc4c4ccccc43)cc1C(c1ccccc1Cl)=NC2O (centres unmarked)
- IC50 [1, 4]: 25 nM
- ED50 ([3]; Table I): 0.022 mg/kg

Structure (SMILES): Cc1nnc2n1-c1sc(C#CCN3C(=O)c4ccccc4S3(=O)=O)cc1C(c1ccccc1Cl)=NC2
- IC50 [1, 4]: 4 nM
- inhibition in vivo at 0.3 mg/kg [2, 7]: 27%

Structure (SMILES): Cc1nnc2n1-c1ccc(C#CCOc3ccccc3)cc1C(c1ccccc1Cl)=NC2
- IC50 [1, 5]: < 10 nM
- inhibition in vivo at 0.3 mg/kg [2, 6]: 37%

Structure (SMILES): Cc1nnc2n1-c1ccc(C#CCN3C(=O)Cc4ccccc43)cc1C(c1ccccc1Cl)=NC2
- IC50 [1, 5]: < 10 nM

Structure (SMILES): Cc1nnc2n1-c1ccc(C#CCN3Cc4ccccc4C3=O)cc1C(c1ccccc1F)=NC2
- IC50 [1, 5]: 225 nM
- inhibition in vivo at 3 mg/kg ([2]; po): 100%

Structure (SMILES): Cc1nnc2n1-c1sc(C#CCN3C(=O)Cc4ccccc43)cc1C(c1ccccc1Cl)=NC2
- IC50 [1, 4]: 3 nM
- ED50 ([2]; po, Table I): 0.05 mg/kg

Structure (SMILES): Cc1nnc2n1-c1ccc(C#CCOc3cccnc3)cc1C(c1ccccc1Cl)=NC2
- IC50 [1, 5]: 130 nM
- ED50 ([3]; Table II): 0.005 mg/kg

Structure (SMILES): Cc1nnc2n1-c1sc(C#CCn3c(=O)c4cc(Cl)ccc4c4ccc(Cl)cc43)cc1C(c1ccccc1Cl)=NC2
- ED50 ([3]; Table I): 0.008 mg/kg

Structure (SMILES): Cc1nnc2n1-c1ccc(C#CCn3cnc4ccccc4c3=O)cc1C(c1ccccc1F)=NC2
- IC50 [1, 5]: 70 nM

Structure (SMILES): Cc1nnc2n1-c1ccc(C#CCN3C(=O)COc4ccccc43)cc1C(c1ccccc1F)=NC2
- inhibition in vivo at 3 mg/kg ([2]; po): 98%
- % inhibition of bronchoconstriction [3]: 100%

Structure (SMILES): Cc1nnc2n1-c1ccc(C#CCn3cnc4ccccc43)cc1C(c1ccccc1Cl)=NC2
- IC50 [1, 5]: 15 nM

Structure (SMILES): O=C1c2ccccc2C(=O)N1CC#Cc1ccc2c(c1)C(c1ccccc1F)=NCc1nnc(C(F)(F)F)n1-2
- ED50 ([2]; po, Table II): 0.3 mg/kg
- ED50 ([3]; Table II): 0.44 mg/kg

Structure (SMILES): Cc1nnc2n1-c1ccc(C#CCN3C(=O)CSc4ccccc43)cc1C(c1ccccc1F)=NC2
- inhibition in vivo at 3 mg/kg ([2]; po): 99%
- % inhibition of bronchoconstriction [3]: 99%

Structure (SMILES): Cc1nnc2n1-c1ccc(C#CCCN3C(=O)c4ccccc4C3=O)cc1C(c1ccccc1F)=NC2
- inhibition in vivo at 0.3 mg/kg [2, 6]: 54%

Structure (SMILES): Cc1nnc2n1-c1sc(C#CCOc3ccccc3)cc1C(c1ccccc1Cl)=NC2
- inhibition in vivo at 0.3 mg/kg [2, 7]: 67%
- ED50 ([3]; Table I): 0.006 mg/kg

Structure (SMILES): Cc1nnc2n1-c1ccc(C#CCN3C(=O)C4CCCN4C3=O)cc1C(c1ccccc1F)=NC2 (centres unmarked)
- IC50 [1, 5]: 200 nM
- inhibition in vivo at 3 mg/kg ([2]; po): 99%
